The text below walks through data of patent EP2561858B1, “A composition for activating hair follicle stem cells to stimulate hair growth” (LABO Cosprophar AG, priority 2011, dated 2013).

Test [1] deals with T1, 5-alpha reductase activity II (Homo sapiens, UniProt P31213).
T1 construct: skin fibroblasts, cells that contain different types of enzymes involved in the biosynthesis of steroids, were used; endogenous in cells; host or cells: skin fibroblasts
T1 sequence (P31213 1-254): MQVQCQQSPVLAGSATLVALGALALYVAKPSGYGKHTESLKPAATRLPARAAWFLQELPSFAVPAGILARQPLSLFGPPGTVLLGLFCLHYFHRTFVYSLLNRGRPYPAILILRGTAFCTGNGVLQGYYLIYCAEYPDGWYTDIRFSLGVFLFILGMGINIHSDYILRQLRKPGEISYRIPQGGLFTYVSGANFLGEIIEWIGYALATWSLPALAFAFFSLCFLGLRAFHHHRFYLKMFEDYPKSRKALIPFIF
The test is described as follows: 5-alpha reductase inhibition in skin fibroblasts (marked Testosterone to DHT, TLC), type II. It counts as cell-based. The note with it: 100µM, 1 hour at 37°C preincubation, 3 hr with marked Testosterone. On the procedure:
(§1) In the experiment, skin fibroblasts, cells that contain different types of enzymes involved in the biosynthesis of steroids, were used. These cells represent a good system for the evaluation of the kinetic parameters of enzyme inhibitors such as 5-alpha reductase, delegated to steroid metabolism.
(§2) Fibroblasts were or were not incubated with 100µM of active Biochanin-A for 1 hour at 37°C before the addition of a known quantity of marked Testosterone, at the concentration of 1.5 micromoles. After 3 hr we proceeded with the extraction of the radioactive steroids. The amount of marked Testosterone and DHT are determined by TLC (Thin Layer Chromatography) to quantify 5-alpha reductase activity.

The target in test [2] is T2, 5-alpha reductase activity I (Homo sapiens, UniProt P18405).
T2 construct: skin fibroblasts, cells that contain different types of enzymes involved in the biosynthesis of steroids, were used; endogenous in cells; host or cells: skin fibroblasts
T2 sequence (P18405 1-259): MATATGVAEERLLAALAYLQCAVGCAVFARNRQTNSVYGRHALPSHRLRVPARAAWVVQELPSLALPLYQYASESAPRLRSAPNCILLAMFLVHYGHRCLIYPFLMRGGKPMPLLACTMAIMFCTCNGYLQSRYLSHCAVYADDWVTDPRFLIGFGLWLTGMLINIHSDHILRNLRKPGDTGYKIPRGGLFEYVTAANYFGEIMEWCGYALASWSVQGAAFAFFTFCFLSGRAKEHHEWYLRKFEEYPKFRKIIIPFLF
The test is described as follows: 5-alpha reductase inhibition in skin fibroblasts (marked Testosterone to DHT, TLC), type I. In kind it is cell-based. The conditions noted are these: 100µM, 1 hour at 37°C preincubation, 3 hr with marked Testosterone. On the procedure: as §1, §2

Turning to `COc1ccc(-c2coc3cc(O)cc(O)c3c2=O)cc1` [Biochanin-A], in test [1], the “5-alpha reductase activity II compared to the negative control” value is -93%. Moreover, the “5-alpha reductase activity I compared to the negative control” value in test [2] is -64%.
